Source: ChEMBL document CHEMBL1159148, “Myo-inositol 1,4,6-trisphosphate: A new synthetic Ca2+-mobilising inositol phosphate” (Bioorg Med Chem Lett, 1993)

Species: Oryctolagus cuniculus
Test: Compound was evaluated for its ability to release [Ca2+] from permeabilised rabbit platelets
Type: functional

EC50 [µM] | SMILES
2.07 | O=P(O)(O)O[C@@H]1[C@H](O)[C@H](O)[C@@H](OP(=O)(O)O)[C@H](OP(=O)(O)O)[C@H]1O (stereo in doubt; form 2) [INS(1,4,5)P3]
0.18 | O=P(O)(O)O[C@@H]1[C@H](O)[C@H](O)[C@@H](OP(=O)(O)O)[C@H](OP(=O)(O)O)[C@H]1O (stereo in doubt; form 1) [INS(1,4,5)P3]
